Test results published in patent publication US7759101B2, “Ginsenoside glycosidases hydrolyzing ginsenoside sugar moieties and uses thereof” (priority 2000, dated 2010).

Legend:
[1] = system: ginsenoside glycosidases from A. oryzae; assay: Hydrolysis of ginsenosides with crude ginsenoside glycosidases from A. oryzae, TLC; assay type: biochemical, Aspergillus oryzae; settings: pH 5.0, 30° C., 18 hours
Method: (§1) Aspergillus oryzae FFCCDL-39 g (available from Food Fermentation Culture Collection of Dalian Institute of Light Industry) was cultured with stirring in a medium containing 1% ginseng extracts and 3% wheat bran extracts at 30° C. for 64 hours. Cells were removed by centrifugation, after which (NH4)2SO4 powder was added to 2000 ml of the cell-free supernatant with stirring to 65% saturation. The solution was stored overnight at 4° C. and precipitated proteins were collected by centrifugation, resuspended in 80 ml of distilled water and dialyzed against 0.01M acetate buffer pH 5. Insolubles were removed by centrifugation, and the solution was adjusted to 200 ml with 0.01 M acetate buffer pH 5. The crude enzyme solution may be used to hydrolyze ginsenosides or to purify the enzymes.
Each 100 mg of ginsenosides Rb1, Rb2, Rc Re and Rd and each 10 mg of ginsenoside Rg3 and Rg2 were dissolved in separate tubes containing 10 ml of 0.01M acetate buffer pH 5. 10 ml of the crude enzyme solution obtained as above was added to each tube and allowed to react at 30° C. for 18 hours. Then 10 ml of n-butanol was added to stop the reactions. The products were measured by thin layer chromatography (TLC) (Silica gel 60-F254, Merck; chloroform:methanol:water 70:30:5). […]

[2] = system: ginsenoside glycosidases from A. niger; assay: Hydrolysis of ginsenosides with crude ginsenoside glycosidases from A. niger, products measured by TLC; assay type: biochemical, Aspergillus niger; settings: for effect of metal ions on the enzyme reaction: hydrolysis of Rb1, pH 5.0, 30°C.
Method: as §1, with “niger FFCCDL-48” for “oryzae FFCCDL-39”, “g” for “g (available from Food Fermentation Culture Collection of Dalian Institute of Light Industry)”, “cultured” for “cultured with stirring”, “54” for “64”
100 mg each of ginsenosides Rb1, Rb2, Rc and Rd and 10 mg of ginsenoside Rg3 were dissolved in separate tubes containing 10 ml of 0.01M acetate buffer pH 5. 10 ml of the crude enzyme solution obtained in 1.1 was added to each tube and allowed to react at 30° C. for 18 hours. Then 10 ml of n-butanol was added to stop the reactions. The products were measured by thin layer chromatography (TLC) (Silica gel 60-F254, Merck; chloroform:methanol:water 70:30:5).
Experiments were carried out to explore the effects of temperature, pH, metal ions and reaction time on the enzyme reaction, in order to further characterize the enzymes.
100 mg of ginsenoside Rb1 was used in a reaction under the conditions as described in 1.2 and the effect of temperature was shown in Table 2.

[3] = system: ginsenoside glycosidase I from ginseng plants; assay: Hydrolysis of ginsenosides with fraction 52 (ginsenoside glycosidase I) from ginseng plant; assay type: biochemical; settings: ginsenoside glycosidase I from ginseng plant
Method: (§2) 200 g of fresh ginseng root was cut into pieces and added to 600 ml of 0.02 M acetate buffer pH 5. Supernatant was obtained by filtration after the mixture stand at 40° C. for 2 hours. To the supernatant (NH4)2SO4 was added gradually until 70% saturation and the mixture stand overnight at 4° C. Then protein pellets were collected by centrifugation and redissolved in 15 ml of distilled water. The solution was dialyzed against 0.02 M Tris-HCl pH 7.4. Insolubles were removed by centrifugation and the volume of the supernatant was adjusted to 20 ml.
(§3) 5 ml of the enzyme solution was subjected to a DEAE-Cellulose DE-25 column (Whatman, 1.4×6.7 cm). The column was eluted with a KCl gradient (0.06, 0.12, 0.18 and 0.24 M) in 0.02 M Tris-HCl pH 7.4. After elution, each fraction was tested for the activity of hydrolyzing ginsenosides. […] Fraction 52 can also hydrolyze the glucosidic bond at the twentieth carbon atom of Rb and Rc to give ginsenoside F2.

[4] = system: ginsenoside glycosidase III from ginseng plant; assay: Hydrolysis of Rd with fraction 37 (ginsenoside glycosidase III) from ginseng plant; assay type: biochemical; settings: ginsenoside glycosidase III from ginseng plant
Method: as §2, §3

[5] = system: ginsenoside glycosidases from wheat bran; assay: Hydrolysis of ginsenosides with ginsenoside glycosidases from wheat bran; assay type: biochemical; settings: enzymes from wheat bran
Method: 500 g of wheat bran was added to 2500 ml of 0.02 M acetate buffer pH 5 and extracted at 40° C. for 2 hours. 2000 ml of supernatant were obtained by filtration to which (NH4)2SO4 was added gradually with stirring until 70% saturation. The mixture stand at 4° C. overnight. Protein pellets were collected by centrifugation and redissolved in 80 ml of distilled water and dialyzed against 0.02 M acetate buffer pH 5.0. Insolubles were removed by centrifugation and the supernatant was adjusted to a volume of 200 ml to obtain the crude enzyme solution.
10 ml of the enzyme solution was allowed to react with 10 ml of 1% ginsenoside substrate at 40° C. for 20 hours.

[6] = system: ginsenoside glycosidase I; assay: Hydrolysis of ginsenosides with Fraction 36 (ginsenoside glycosidase I); assay type: biochemical, Aspergillus niger; settings: Fraction 36; substrates Rb1, Rb2, Rc, Rd 0.5%; Rg3, F2, Rh2, C—K, Rg2 0.05%; pH 5.0, 30° C.
Method: 10 ml of the enzyme solution obtained in 1.1 was subjected to a DEAE-Cellulose DE-52 column (Pharamcia, 1.5×6.7 cm) to absorb the enzyme protein. The column was then eluted with a NaCl gradient (0.06, 0.12, 0.18, 0.24, 0.3, 0.4, 0.5 and 0.6M).
Fractions 36 and 54 from the DEAE-Cellulose column appeared as one dot on a SDS-polyacrylamide gel, representing the purified enzymes.
Fraction 36 which was eluted with 0.12 M NaCl from the DEAE-Cellulose column was lyophilized and appeared as a single dot with a molecular weight of 51,000 Daltons when running on a SDS-polyacrylamide gel.
To observe the differences between the ginsenoside glycosidases of the invention and known exo-cellulases, the ginsenoside glycosidases of the invention were compared with cellulose β-glucosidase (E.C. 3.2.1.21) in two reactions with 0.5% ginsenosides Rb1 or Rd as substrate.

In the case of `CC(C)=CCC[C@](C)(O[C@@H]1O[C@H](CO)[C@@H](O)[C@H](O)[C@H]1O)[C@H]1CC[C@]2(C)[C@@H]1[C@H](O)C[C@@H]1[C@@]3(C)CC[C@H](O)C(C)(C)[C@@H]3[C@@H](O[C@@H]3O[C@H](CO)[C@@H](O)[C@H](O)[C@H]3O[C@@H]3O[C@@H](C)[C@H](O)[C@@H](O)[C@H]3O)C[C@]12C` [Re, ginsenoside Re], the “Percentage of Re in the reaction product” value [1] is reported as 20%, the “Percentage of Rg1 in the reaction product” value [1] is reported as 73% and the “Percentage of Rh1 in the reaction product” value [1] is reported as 2%. The “Percentage of aglycone in the reaction product” value (“Percentage of aglycone” for short) [1] was 5%.
In the case of `[Cu+2]` [Cu^++], the “effect of metal ions on the enzyme reaction” value [2] is reported as “inhibit the reaction”, the “effect of metal ion on the enzyme” value [3] is reported as “inhibitory effect” and the “effect of metal ion on the enzyme” value [4] is reported as “inhibitory effect”. The “effect of metal ion on the enzyme activity” value [5] was “inhibitory effect”.
In the case of `CC(C)=CCC[C@](C)(O)[C@H]1CC[C@]2(C)[C@@H]1[C@H](O)C[C@@H]1[C@@]3(C)CC[C@H](O[C@@H]4O[C@H](CO)[C@@H](O)[C@H](O)[C@H]4O[C@@H]4O[C@H](CO)[C@@H](O)[C@H](O)[C@H]4O)C(C)(C)[C@@H]3CC[C@]12C` [Rg3, ginsenoside Rg3], the “Percentage of Rg3 in the reaction product” value (shortened to “Percentage of Rg3”) ([2]; pH 5, 30° C., 18 hours) is reported as 30%, the “Percentage of Rh2 in the reaction product” value (shortened to “Percentage of Rh2”) ([2]; pH 5, 30° C., 18 hours) is reported as 53% and the “Percentage of aglycone” value ([2]; pH 5, 30° C., 18 hours) is reported as 17%. The “conversion rate from Rg3 to Rh2” value ([2]; pH 5, 30° C., 18 hours) was “over 50%”, the “Percentage of Rg3” value [6] was 40% and the “Percentage of Rh2” value [6] was 57%. The “Percentage of aglycone” value [6] was 3%, the “Percentage of Rg3” value [1] was 45% and the “Percentage of Rh2” value [1] was 50%. The “Percentage of aglycone” value [1] was 5%.
In the case of `CC(C)=CCC[C@](C)(O)[C@H]1CC[C@]2(C)[C@@H]1[C@H](O)C[C@@H]1[C@@]3(C)CC[C@H](O)C(C)(C)[C@@H]3[C@@H](O[C@@H]3O[C@H](CO)[C@@H](O)[C@H](O)[C@H]3O[C@@H]3O[C@@H](C)[C@H](O)[C@@H](O)[C@H]3O)C[C@]12C` [Rg2, ginsenoside Rg2], the “Percentage of Rg2 in the reaction product” value [6] is reported as 100%, the “Percentage of Rg2 in the reaction product” value [1] is reported as 32% and the “Percentage of Rh1 in the reaction product” value [1] is reported as 75%. For the same molecule, the “Percentage of aglycone” value [1] was 3%.
In the case of `[Mg+2]` [Mg^++], the “effect of metal ions on the enzyme reaction” value [2] is reported as “slightly accelerate the conversion rate” and the “effect of metal ion on the enzyme activity” value [5] is reported as “enhance the enzyme activity”.
`CC(C)=CCC[C@](C)(O)[C@H]1CC[C@]2(C)[C@@H]1[C@H](O)C[C@@H]1[C@@]3(C)CC[C@H](O[C@@H]4O[C@H](CO)[C@@H](O)[C@H](O)[C@H]4O)C(C)(C)[C@@H]3CC[C@]12C` [Rh2, ginsenoside Rh2] was tested, and the “Percentage of Rh2” value [6] was 89% and the “Percentage of aglycone” value [6] was 10%.
In the case of `CC(C)=CCC[C@](C)(O[C@@H]1O[C@H](CO)[C@@H](O)[C@H](O)[C@H]1O)[C@H]1CC[C@]2(C)[C@@H]1[C@H](O)C[C@@H]1[C@@]3(C)CC[C@H](O)C(C)(C)[C@@H]3CC[C@]12C` [C—K, ginsenoside C-K], the “Percentage of C—K in the reaction product” value [6] is reported as 97% and the “Percentage of aglycone” value [6] is reported as 3%.
